With `CN1CCc2nc3cc(Cl)ccc3c(Nc3ccccc3)c2C1`, the melting point (in general, the temperature of the solid-liquid transition) lay within 197 to 198 °C.
For `N#Cc1cnn2c1N(C(=O)CN1CCN(C(=O)Nc3ccccc3)CC1)CC=C2c1cccc(C(F)(F)F)c1` the value was 184 to 187 °C; for `COC(=O)c1ccc(OCc2ccc(Cl)cc2)cc1OCc1ccccc1`, 99 to 101 °C; for `N#Cc1cc(-c2cc(C(F)F)c3c(-c4cccnc4)nn(C4CCCCO4)c3n2)ccc1N` (centres undefined), 140 °C.
Then `COC(=O)[C@@H]1CN(CCCCN2C(=O)c3cc(Cl)ccc3S2(=O)=O)CC[C@H]1n1c(=O)[nH]c2ccccc21` (relative stereo), with 170 to 176 °C; and `Cc1c(-c2ccccc2)c2c(c3c1[nH]c1ccc(O)cc13)C(=O)NC2=O`, with 270 to 280 °C.
Turning to `CCOC(=O)n1c(=O)n(CCCl)c2cc(OC)ccc21`, the melting point fell in the range of 116 to 118 °C.
For `CCOC(=O)C[C@@H](CCCc1ccncc1)C(=O)N[C@H]1Cc2cn(c3ccccc23)CCOCCNC1=O` the value was 203 to 205 °C; for `CCOC(=O)NN=COC(CC)NC` (centres undefined), 104 °C; for `N#Cc1ccc(-c2ccc(O)cc2)cc1F`, 67 to 68 °C.
`CC1(C)Cc2c(Cl)c(N)cc(C(=O)O)c2O1` registered a melting point of 185 to 187 °C.
For `CN(C)c1ccc(CNc2nc(Nc3cccc(NS(C)(=O)=O)c3)nc3[nH]cnc23)cc1` the value was 138 to 142 °C; for `O=[N+]([O-])c1cc(C2OCCCO2)ccc1O`, 70 to 71 °C; for `CCCCCCCCCCCCCCCCCCOCC(COC(c1ccccc1)(c1ccccc1)c1ccccc1)OC(=O)N1CCOCC1` (centres undefined), 78 to 79 °C.
Molecule `CC(C)(C)NC(=O)c1ccc(N2CCN(c3ccncc3)CC2)cc1` displayed a melting point of 214 to 217 °C.
Then `Clc1ccc(Cl)c(CN2CCNc3ncc(I)cc32)c1`, with 169 °C; and `Nc1ccc(Cc2ccccc2)cc1[N+](=O)[O-]`, with 80 to 83 °C; and `CN(C)C(=S)SC(c1ccc(Cl)cc1Cl)C(C(c1ccc(Cl)cc1Cl)N(C)C)[N+](=O)[O-]` (centres undefined), with 152 to 154 °C.
Then `COc1cc(N2CCN(C(=O)Cn3nc(C4=NCCN4)c4cccnc43)CC2)ccc1Cl`, with 133 to 135 °C; and `O=C(Nc1cccc(S(=O)(=O)CCO)c1)c1cnn2c(C(F)(F)F)cc(-c3ccc(C(F)(F)F)cc3)nc12`, with 237 °C.
As for `O=C1c2cc(OC(F)(F)F)ccc2S(=O)(=O)N1CCCCBr`, the melting point was 77 to 78 °C.
For `COc1cc(Nc2c(C#N)cnc3cc(-c4ccsc4CN4CCOCC4)ccc23)c(Cl)cc1Cl` the value was 98 to 100 °C.
The molecule `NCCc1cn(S(=O)(=O)c2ccccc2Cl)c2cccnc12` displayed a melting point of 106 to 108 °C.
Then `O=C(Nc1ccccc1)NC1CCN2CCc3ccccc3C2C1` (centres undefined), with 210 °C.
On to `CC1(C)C(=N)N(CC(N)=O)c2ccccc21`, for which the melting point was 167 to 173 °C.
Then `CC1(CNc2ccccc2)SC2C(NC(=O)Cc3ccccc3)C(=O)N2C1C(=O)O` (centres undefined), with 120 °C.
With `Brc1ccc2c(c1)/C(=C\CN1CCCC1)c1ccccc1CO2`, the melting point lay in the range of 108 to 109 °C.
For `Cc1cccc(C)c1N1CCCN(c2c(C)cccc2C)C1=N` the value was 68 to 71 °C; for `CCOCCNC(=O)COc1ccn2nc(-c3ccccc3)c(-c3ccc(=O)n(C(C)C)n3)c2c1`, 126 to 128 °C.
Take `O=C(Nc1cccc2c(=O)cc[nH]c12)c1c(Cl)cccc1Cl`: the melting point is 342 °C.
For the molecule `Oc1ccc(OC[C@@H](O)CNCCc2ccc(-n3c(CCC4CCCC4)nc4cccnc43)cc2)cc1`, the melting point was in the range of 59 to 61 °C.
On to `O=C1Cc2c([nH]c3ccc(I)cc23)-c2ncccc2N1`, for which the melting point is greater than 330 °C.
`Cn1cc(/C=C/c2ccc3ccccc3n2)cc1C(=O)O`: the melting point was greater than 230 °C.
As to `COc1ccc2cc(I)ccc2c1`, the melting point was 142 to 143 °C.

The values are drawn from a melting point compilation (Tetko et al.; mined from patent text by program, amines drawn as free bases though some values may be those of a salt).
